Target: T1, mouse TRPM3α2 (mTRPM3) ion channel (Mus musculus, UniProt J9SQF3)
T1 construct: expressed in transfected cells; host or cells: Flp-In HEK293
Experiment: TRPM3 ion channel driven Ca2+ uptake (Fluo-4 AM assay), PS-stimulated overexpressing HEK293 cells
Assay type: cell-based
Details: flip-in HEK293 overexpressing TRPM3, stimulated with Pregnenolone sulfate (PS) 50 μM, activity ranges A, B, C
Method: In order to monitor the inhibition of the mouse TRPM3α2 (mTRPM3) ion channel by the compounds of the invention, a cellular system making use of an mTRPM3alpha2 or hTRPM3 overexpressing cell line (flip-in HEK293) was used. The TRPM3 channel was stimulated/opened with Pregnenolone sulfate (PS) (50 μM) which results in Ca^2+ influx.
For mTRPM3, the intracellular Ca^2+ was measured with a Calcium responsive dye, Fluor-4 AMV ester (Invitrogen). Cells were cultured until a confluence of 80-90%, washed with Versene (Invitrogen) and detached from the surface by a short incubation with 0.05% Trypsin (Invitrogen). The trypsination process was stopped by the addition of complete cell culture medium (DMEM, glutamax, 10% FCS, NEAA, Pen-Strep). Cells were collected and resuspended in Krebs buffer without Calcium at RT.
Prior the cell seeding (±2000 cells/well into a black, 384 well plate (Greiner)) the diluted compound was added in the assay plate, together with the PS dissolved in Krebs buffer containing Calcium. […] Directly after cell addition the plates were read on an Envision fluorescence reader (Perkin Elmer) by an Excitation of 485 nm and emission at 535 nm.
Channel inhibition was calculated compared to a non-PS stimulated control versus a condition stimulated with PS (50 μM) with vehicle. The ability of the compounds of the invention to inhibit this activity was determined as: Percentage inhibition=[1-((RFU determined for sample with test compound present−RFU determined for sample with positive control inhibitor) divided by (RFU determined in the presence of vehicle−RFU determined for sample with positive control inhibitor))]*100.
The activities of the Example compounds tested are depicted in the table below. The activity ranges A, B and C refer to IC50 values in the Fluo-4 AM assay as follows: “A”: IC50<1 μM; “B”: 1 μM≤IC50≤20 μM and “C”: IC50>20 μM

T1 sequence (J9SQF3 1-1709 isoform J9SQF3-12): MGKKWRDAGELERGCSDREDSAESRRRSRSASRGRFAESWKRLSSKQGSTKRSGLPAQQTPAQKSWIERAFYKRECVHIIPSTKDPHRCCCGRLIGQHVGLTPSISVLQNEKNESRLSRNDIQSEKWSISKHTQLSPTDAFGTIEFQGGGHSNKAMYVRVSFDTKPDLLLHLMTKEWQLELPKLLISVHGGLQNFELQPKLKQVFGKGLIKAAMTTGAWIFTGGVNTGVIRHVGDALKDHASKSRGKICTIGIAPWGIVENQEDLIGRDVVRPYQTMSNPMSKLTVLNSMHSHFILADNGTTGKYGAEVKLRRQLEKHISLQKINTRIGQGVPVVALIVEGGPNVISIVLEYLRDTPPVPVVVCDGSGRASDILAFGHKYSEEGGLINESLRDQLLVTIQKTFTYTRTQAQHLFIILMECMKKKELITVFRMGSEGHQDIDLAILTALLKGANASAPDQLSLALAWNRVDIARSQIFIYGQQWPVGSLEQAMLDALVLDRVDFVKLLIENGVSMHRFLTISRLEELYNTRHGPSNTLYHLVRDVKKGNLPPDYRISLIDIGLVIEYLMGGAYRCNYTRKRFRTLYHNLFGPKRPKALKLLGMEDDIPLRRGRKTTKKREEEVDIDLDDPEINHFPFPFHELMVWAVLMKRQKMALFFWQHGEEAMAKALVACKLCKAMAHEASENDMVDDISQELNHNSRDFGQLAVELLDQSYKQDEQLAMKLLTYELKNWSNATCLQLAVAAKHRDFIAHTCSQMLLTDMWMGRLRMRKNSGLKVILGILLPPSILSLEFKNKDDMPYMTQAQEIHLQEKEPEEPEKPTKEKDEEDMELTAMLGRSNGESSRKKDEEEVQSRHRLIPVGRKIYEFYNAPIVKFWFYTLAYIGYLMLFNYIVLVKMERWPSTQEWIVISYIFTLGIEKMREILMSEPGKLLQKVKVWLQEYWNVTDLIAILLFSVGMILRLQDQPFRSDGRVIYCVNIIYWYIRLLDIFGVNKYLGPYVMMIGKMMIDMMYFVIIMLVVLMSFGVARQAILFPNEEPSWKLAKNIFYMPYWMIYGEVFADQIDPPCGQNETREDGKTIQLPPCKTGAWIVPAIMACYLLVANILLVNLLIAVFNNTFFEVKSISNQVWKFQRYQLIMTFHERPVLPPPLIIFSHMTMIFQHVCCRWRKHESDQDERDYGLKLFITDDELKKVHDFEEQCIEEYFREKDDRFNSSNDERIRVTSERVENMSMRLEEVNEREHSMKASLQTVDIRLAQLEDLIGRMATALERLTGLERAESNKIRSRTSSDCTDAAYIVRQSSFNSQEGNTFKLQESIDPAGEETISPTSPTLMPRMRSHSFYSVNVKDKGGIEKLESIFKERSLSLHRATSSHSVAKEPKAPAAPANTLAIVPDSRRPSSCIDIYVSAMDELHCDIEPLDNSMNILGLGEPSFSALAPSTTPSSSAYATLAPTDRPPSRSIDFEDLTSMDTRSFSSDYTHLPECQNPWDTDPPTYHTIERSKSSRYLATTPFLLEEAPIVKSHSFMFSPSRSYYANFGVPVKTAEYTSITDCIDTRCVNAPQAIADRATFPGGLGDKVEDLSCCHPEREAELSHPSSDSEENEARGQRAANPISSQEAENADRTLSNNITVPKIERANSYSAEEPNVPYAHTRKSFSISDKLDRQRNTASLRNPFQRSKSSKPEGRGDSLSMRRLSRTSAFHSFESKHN

Row | IC50 [µM] | Structure (SMILES)
1 | 1 to 20 | Cc1ncsc1COc1cc2c(C(=O)NC3(CO)COC3)c(C)oc2cn1 [Cpd 033, N-[3-(hydroxymethyl)oxetan-3-yl]-2-methyl-5-[(4-methyl-1,3-thiazol-5-yl)methoxy]furo[2,3-c]pyridine-3-carboxamide]
2 | 1 to 20 | Cc1oc2cnc(OCc3ccccn3)cc2c1C(=O)NC1(CO)CCC1 [Cpd 029, N-[1-(hydroxymethyl)cyclobutyl]-2-methyl-5-[(pyridin-2-yl)methoxy]furo[2,3-c]pyridine-3-carboxamide]
3 | 1 to 20 | Cc1ncsc1COc1cc2c(C(=O)NC(C)(C)C(N)=O)c(C)oc2cn1 [Cpd 011, 2-methyl-2-({2-methyl-5-[(4-methyl-1,3-thiazol-5-yl)methoxy]furo[2,3-c]pyridin-3-yl}formamido)propanamide]
4 | 1 to 20 | Cc1oc2cnc(OCc3ccccc3F)cc2c1C(=O)NC1(CO)CC1 [Cpd 018, 5-[(2-fluorophenyl)methoxy]-N-[1-(hydroxymethyl)cyclopropyl]-2-methylfuro[2,3-c]pyridine-3-carboxamide]
5 | > 20 | Cc1oc2cnc(OCc3ccccc3)cc2c1C(=O)NC1(CO)CCOCC1 [Cpd 016, 5-(benzyloxy)-N-[4-(hydroxymethyl)oxan-4-yl]-2-methylfuro[2,3-c]pyridine-3-carboxamide]
